SMILES strings stand for the structures.

What all share (type): in vivo
Assay [1] deals with human subject suffering from rheumatoid arthritis. As to the kind of experiment: Example A: oral tablet treatment of rheumatoid arthritis. As to conditions: tablet with 15 mg compound, three tablets per day orally for 2 years. The method, then: A tablet composition for oral administration, according to the present invention, is made comprising:
A human subject weighing 60 kg (132 lbs), suffering from rheumatoid arthritis, is treated by a method of this invention. Specifically, for 2 years, a regimen of three tablets per day is administered orally to said subject.

In assay [2] the test system is human subject with a premetastatic tumor. As to the kind of experiment: Example G: parenteral suspension injected next to a premetastatic tumor. To be noted: 100 mg/mL suspension, about 2.0 mL injected beside the tumor twice daily, after 30 days. The protocol: A composition for parenteral administration is made comprising:
The above ingredients are mixed, forming a suspension. Approximately 2.0 mL of the suspension is administered, via injection, to a human subject with a premetastatic tumor. The injection site juxtaposes the tumor. This dosage is repeated twice daily, for approximately 30 days.

In assay [3] the test system is human subject suffering from osteoarthritis. As to the kind of experiment: Example B: oral capsule treatment of osteoarthritis. To be noted: capsule containing 70 mg daily for 5 years. The method, then:
A capsule for oral administration, according to the present invention, is made comprising:
A human subject weighing 90 kg (198 lbs.), suffering from osteoarthritis, is treated by a method of this invention. Specifically, for 5 years, a capsule containing 70 mg of the compound of Example 3 is administered daily to said subject.

The test system of assay [4] is patient having deep corneal abrasion. As to the kind of experiment: Example C: saline-based eye drop for deep corneal abrasion. As to conditions: 5% w/w drop to each eye twice a day. The text has this:
A saline-based composition for local administration, according to the present invention, is made comprising:
A patient having deep corneal abrasion applies the drop to each eye twice a day.

A further assay relates to asthma sufferer. As to the kind of experiment: Example E: inhalation aerosol for asthma. As to conditions: 5.0% w/v aerosol, 0.01 mL sprayed into the mouth while inhaling.
The subject of assay [5] is patient suffering from chemical burns. As to the kind of experiment: Example D: topical composition for chemical burns. As to conditions: 0.20% w/v topical composition at each dressing change (b.i.d.). The source says:
A topical composition for local administration, according to the present invention, is made comprising:
A patient suffering from chemical burns applies the composition at each dressing change (b.i.d.).

In the case of `COc1ccc(-c2ccc(S(=O)(=O)N(C)C(C(=O)O)C3CCC(O)CC3)cc2)cc1` (centres unmarked) [Example 1, N-{[4′-Methoxy-(1,1′-biphenyl)-4-yl]-sulfonyl-N-methyl-amino}-(4-hydroxycyclohexan-1-yl)-acetic Acid], in assay [1], the “inflammation at end of treatment period” value is on record as “reduced inflammation”; the “mobility and pain at end of treatment period” value is on record as “improved mobility without concomitant pain”.

For `COc1ccc(-c2ccc(S(=O)(=O)N(C)[C@@H](C(=O)O)C3CCC4(CC3)OCCCO4)cc2)cc1` [Example 2, (R)-N-{[4′-methoxy-(1,1′-biphenyl)-4-yl]-sulfonyl}-N-methylamino-(1,5-dioxa-spiro[5.5]undec-9-yl)-acetic Acid], in assay [2], the “symptoms of the disease” value is listed as “subside”.

For `CN([C@@H](C(=O)O)C1CCC2(CC1)OCCCO2)S(=O)(=O)c1ccc(-c2ccc(Br)cc2)cc1` [Example 3, (R)-N-{[4′-bromo-(1,1′-biphenyl)-4-yl]-sulfonyl}-N-methylamino-(1,5-dioxa-spiro[5.5]undec-9-yl)-acetic Acid], the “advancement of erosion/fibrillation of the articular cartilage (x-ray, arthroscopy and/or MRI)” value in assay [3] is “no further advancement”.

As to `COc1ccc(-c2ccc(S(=O)(=O)N(C)C(C(=O)O)C3(SC)CCCC4(C3)OCCO4)cc2)cc1` (centres unmarked) [Example 10, (7-methylthio-1,4-Dioxaspiro[4.5]dec-7-yl)-N-{[4′-Methoxy-(1,1′-biphenyl)-4-yl]-sulfonyl}-N-methylamino-acetic Acid], in assay [4], the “healing of corneal abrasion” value is “speeded” and the visual sequelae entry was “no visual sequelae”.

Take `COc1ccc(-c2ccc(S(=O)(=O)N(C)C(C(=O)O)C3CCC(N4CCCC4=O)CC3)cc2)cc1` (centres unmarked) [Example 19, N-{[4′-Methoxy-(1,1′-biphenyl)-4-yl]-sulfonyl-N-methylamino}-[4-(2-oxopyrrolidin-1N-yl)-cyclohexan-1-yl]-acetic Acid]: the asthma symptoms result with asthma sufferer is listed as “diminished”.

As for `COc1ccc(-c2ccc(S(=O)(=O)N(C)C(C(=O)O)C3CCC(N4CCOC4=O)CC3)cc2)cc1` (centres unmarked) [Example 21, N-{[4′-Methoxy-(1,1′-biphenyl)-4-yl]-sulfonyl-N-methylamino}-[4-(oxazolidin-2-one-3N-yl)-cyclohexan-1-yl]-acetic Acid], in assay [5], the scarring result is reported as “substantially diminished”.
